Columns and labels:
[1] = test system: LPS-stimulated RAW264.7 cells; assay: IL-12 production in LPS-stimulated RAW264.7 cells (IL-12 ELISA); format: cell-based, murine
Method: Accordingly, RAW264.7 cells are cultured with 100 ng/mL of LPS in presence or absence of the compound(s) for 21 h in a humidified atmosphere of 95% air-5% carbon dioxide at 37° C. IL-12 concentration in the culture medium is measured using the IL-12 ELISA according to the manufacturer (BD Biosciences) recommendations. […] Accordingly, an in vitro IL-12 production assay was used for screening potential inhibitors of osteoclastogenesis.

[2] = test system: ovariectomized (OVX) rats; assay: Ovariectomized-rat model of osteoporosis; format: in vivo, Sprague Dawley rats
From the text: Although in comparison to humans, the skeletal mass of rats remains stable for a protracted period during their lifespan, rats can be ovariectomized to make them sex-hormone deficient, and to stimulate the accelerated loss of bone that occurs in women following menopause. Ovariectomy induced bone loss in the rat and postmenopausal bone loss share many similar characteristics. These include: increased rate of bone turnover with resorption exceeding formation; an initial rapid phase of bone loss followed by a much slower phase; greater loss of cancellous than cortical bone; decreased intestinal absorption of calcium; some protection against bone loss by obesity; and similar skeletal response to therapy with estrogen, tamoxifen, bisphosphonates, parathyroid hormone, calcitonin and exercise. These wide-ranging similarities are strong evidence that the ovariectomized rat bone loss model is suitable for studying problems that are relevant to postmenopausal bone loss.
Sprague Dawley rats (250 g) were ovariectomized (OVX) at day 0. Rats were treated by oral gavage with Compound I (10 mg/kg) from day 14 to day 68. Evaluation of different parameters (body weight, calcium loss, osteoclast markers (RANKL and TRAP mRNA expression), collagen content and histology was performed at day 68.

RAW264.7 cells = conditions: cited from earlier work
[3] = compound concentration 0.020 mM

**Q.** With `CCCCCCCCC(Oc1ccc(C(=O)CCC)cc1)C(=O)[O-].[Na+]` (racemic) [Compound V, Sodium (RS)-2-[4-Butyrylphenoxy]decanoate] as the compound, how does the melting point read?
**A.** Its melting point is 262 to 278 °C.

**Q.** And the IL-12 ([1]; compound concentration 0.040 mM)?
**A.** Its IL-12 is 73.32 pg/mL.

**Q.** Which IL-12 ([1]; compound concentration 0.0075 mM) does the source give for `CCCCCCCCC(Oc1ccc(C(=O)CCCCCCC)cc1)C(=O)[O-].[Na+]` (racemic) [Compound I, Sodium (RS)-2-[4-Octanoylphenoxy]decanoate] here?
**A.** The IL-12 was 112 pg/mL.

**Q.** And the “body weight / ovariectomized-induced obesity” value ([2]; 10 mg/kg oral gavage day 14 to day 68, FIG. 1)?
**A.** Its value is “reduced ovariectomized-induced obesity”.

**Q.** And the “calcium loss in urine” value ([2]; 10 mg/kg oral gavage, day 28 to day 56, FIG. 2)?
**A.** The value was “reduced significantly”.

**Q.** And the “acid phosphatase activity in serum” value ([2]; 10 mg/kg oral gavage, day 28 to day 56, FIG. 3)?
**A.** Its value is “reduced”.

**Q.** And the “ratio of mRNA expression of RANKL/OPG in rat tibia” value ([2]; 10 mg/kg oral gavage, day 68, FIG. 4)?
**A.** Its value is “decreased”.

**Q.** What about the “collagen content in the metaphyse of the femur” value ([2]; 10 mg/kg oral gavage, day 68, FIG. 5) of the same compound?
**A.** Its value is “increased”.

**Q.** And the “bone loss in the metaphysis portion of the femur (histology)” value ([2]; 10 mg/kg oral gavage, day 68, FIGS. 6 and 7)?
**A.** The value was “reduced bone loss”.

**Q.** Which results are given for `CCCCCCCC(=O)c1ccc(OC(CCCCCC)C(=O)[O-])cc1.[Na+]` (racemic) [Compound IV, Sodium (RS)-2-[4-Octanoylphenoxy]octanoate]?
**A.** melting point: 165 to 170 °C; IL-12 [1, 3]: 12.13 pg/mL

**Q.** Which IL-12 ([1]; compound concentration 0.1 mM) does the source give for `CCCCCCCC(=O)c1cccc2c1CC(C(=O)[O-])C2.[Na+]` (racemic) [Compound III, Sodium (RS)-4-Octanoylindane-2-carboxylate] here?
**A.** Its IL-12 is 24.95 pg/mL.

**Q.** With `CCCCCCCCC(Cc1ccc(C(=O)CCCCCCC)cc1)C(=O)[O-].[Na+]` (racemic) [Compound VII, Sodium (RS)-2-[4-Octanoylbenzyl]decanoate] as the compound, how does the IL-12 ([1]; compound concentration 0.012 mM) read?
**A.** Its IL-12 is 8 pg/mL.

**Q.** For `CCCCCCCCCC(=O)O` [capric acid], which IL-12 production (RAW264.7 cells; LPS-stimulated RAW264.7 cells) is on record?
**A.** Its IL-12 production is “increases”.

**Q.** What about the “LPS-upregulated iNOS mRNA levels and nitric oxide (NO) production” value (RAW264.7 cells; LPS) of the same compound?
**A.** Its value is “inhibited”.

**Q.** And the “phosphatase (TRAP)-positive cells (osteoclast differentiation marker)” value (RAW264.7 cells; RAW264.7 cells)?
**A.** The value was “reduction”.

**Q.** And the “monocyte chemoattractant protein-1 (MCP-1) mRNA expression” value (RAW264.7 cells)?
**A.** The value was “inhibited”.

**Q.** With `CCCCCCCCC(Oc1ccc(C(=O)CCCCC)cc1)C(=O)[O-].[Na+]` (racemic) [Compound VI, Sodium (RS)-2-[4-Hexanoylphenoxy]decanoate] as the compound, how does the melting point read?
**A.** Its melting point is 275 to 280 °C.

**Q.** What about the IL-12 [1, 3] of the same compound?
**A.** The IL-12 was 53.5 pg/mL.

Source: US10925846B2, “Phenylketone carboxylate compounds and pharmaceutical compositions for the prevention and treatment of osteoporosis” (Liminal BioSciences Limited, priority 2014, dated 2021)
